Results: patent US5883121A, “Epoxysuccinamide derivative or salt thereof, and medicine comprising the same” (Taiho Pharmaceutical Co., Ltd., priority 1995, dated 1999)
Counter-ions that a name gives are not always drawn.

Columns and labels:
cathepsin L = target: T1, cathepsin L (Rattus norvegicus, UniProt P07154); assay: Determination of inhibition rate against cathepsin L; format: biochemical; conditions: for B/L: IC50 against cathepsin B divided by IC50 against cathepsin L; for IC50: cathepsin L from rat liver, substrate Z-Phe-Arg-MCA, pH 5.5, 30° C, 10 minutes
T1 construct: extracted from a rat liver and completely purified; from tissue; host or cells: rat liver
T1 sequence (P07154 114-288 limits assumed): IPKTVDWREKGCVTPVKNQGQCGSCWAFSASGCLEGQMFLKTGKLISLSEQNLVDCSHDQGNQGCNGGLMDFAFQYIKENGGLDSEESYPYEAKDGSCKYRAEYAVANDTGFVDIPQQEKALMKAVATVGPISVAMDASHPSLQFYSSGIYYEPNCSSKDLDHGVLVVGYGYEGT
T1 sequence (P07154 291-334 limits assumed): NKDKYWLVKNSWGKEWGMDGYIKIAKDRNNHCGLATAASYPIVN
Method: (§1) Determination of inhibition rate against cathepsin L, B and H […]
(§2) Each cathepsin was diluted with a diluent (0.1% Brij 35) to adjust its concentration to 0.3 U (0.1 U: a concentration at which 1.0 nmol of MCA is released per minute at 37° C.). To 500 μl of this solution, were added 250 μl of an activator/buffer (340 mM sodium acetate, 60 mM acetic acid, 4 mM disodium EDTA; pH 5.5). After the mixture was incubated for 1 minute at 30° C., the sample solution of the predetermined concentration and […] of a substrate solution were added to conduct a reaction for 10 minutes.

cathepsin B = target: T2, cathepsin B (Rattus norvegicus, UniProt P00787); assay: Determination of inhibition rate against cathepsin B; format: biochemical; conditions: cathepsin B from rat liver; substrate Z-Arg-Arg-MCA; pH 5.5; 30° C; 10 minutes
T2 construct: extracted from a rat liver and completely purified; from tissue; host or cells: rat liver
T2 sequence (P00787 129-333 limits assumed): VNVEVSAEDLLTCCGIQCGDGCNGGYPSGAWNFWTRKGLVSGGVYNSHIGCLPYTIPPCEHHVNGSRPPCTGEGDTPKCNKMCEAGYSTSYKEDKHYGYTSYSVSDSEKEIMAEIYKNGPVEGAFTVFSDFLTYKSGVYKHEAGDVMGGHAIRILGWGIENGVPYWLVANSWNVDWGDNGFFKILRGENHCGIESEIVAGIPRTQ
T2 sequence (P00787 80-126 limits assumed): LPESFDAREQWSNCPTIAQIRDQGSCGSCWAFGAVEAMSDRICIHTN
Method: as §1, §2

| B/L (cathepsin L) | IC50 (cathepsin L) [nM] | IC50 (cathepsin B) [nM] | SMILES |
| --- | --- | --- | --- |
| > 85000 | < 0.1 | 8500 | CCCNC(=O)[C@H](Cc1ccccc1)NC(=O)[C@H]1O[C@@H]1C(=O)N[C@@H](CCCCN)C(=O)Nc1cccc2ccccc12 [Example 51, Nα-{L-3-trans-[(S)-1-propylcarbamoyl-2-phenylethylcarbamoyl]oxirane-2-carbonyl-L-lysine-1-naphthylamide hydrochloride] |
|  | 220 |  | NCCCC[C@H](NC(=O)[C@H]1O[C@@H]1C(=O)N[C@@H](Cc1ccccc1)C(N)=O)C(=O)N(Cc1ccccc1)Cc1ccccc1 [Example 16, Nα-{L-3-trans-[(S)-1-carbamoyl-2-phenylethylcarbamoyl]oxirane-2-carbonyl}-L-lysine dibenzylamide hydrochloride] |
| 150000 | 0.1 | 15000 | NCCCC[C@H](NC(=O)[C@H]1O[C@@H]1C(=O)N[C@@H](Cc1ccccc1)C(=O)NCCc1ccccc1)C(=O)N1CCc2ccccc21 [Example 47, Nα-{L-3-trans-[(S)-1-(2-phenylethylcarbamoyl)-2-phenylethylcarbamoyl]oxirane-2-carbonyl}-L-lysine indolinylamide hydrochloride] |
| 333 | 90 | 30000 | NCCCC[C@H](NC(=O)[C@H]1O[C@@H]1C(=O)N[C@H](Cc1ccccc1)C(=O)NCCc1ccccc1)C(=O)Nc1cccc2ccccc12 [Example 53, Nα-{L-3-trans-[(R)-1-(2-phenylethylcarbamoyl)-2-phenylethylcarbamoyl]oxirane-2-carbonyl}-L-lysine-1-naphthylamide hydrochloride] |

The next lines start with the compound.

| SMILES | B/L (cathepsin L) | IC50 (cathepsin L) [nM] | IC50 (cathepsin B) [nM] |
| --- | --- | --- | --- |
| CNC(=O)[C@H](Cc1ccccc1)NC(=O)[C@H]1O[C@@H]1C(=O)N[C@@H](CCCCN)C(=O)Nc1ccccc1 [Example 63, Nα-{L-3-trans-[(S)-1-methylcarbamoyl-2-phenylethylcarbamoyl]oxirane-2-carbonyl}-L-lysine anilide hydrochloride] | 1923 | 5.2 | > 10000 |
| NCCCC[C@H](NC(=O)[C@H]1O[C@@H]1C(=O)N[C@@H](Cc1ccccc1)C(=O)Nc1ccccc1)C(=O)Nc1cccc2ccccc12 [Example 57, Nα-{L-3-trans-[(S)-1-phenylcarbamoyl-2-phenylethylcarbamoyl]oxirane-2-carbonyl}-L-lysine-1-naphthylamide hydrochloride] | > 11111 | 9 | > 10000 |
| NCCCC[C@H](NC(=O)[C@H]1O[C@@H]1C(=O)NC1Cc2ccccc2C1)C(=O)NC1c2ccccc2-c2ccccc21 [Example 10, Nα-[L-3-trans-(2-indanylcarbamoyl)oxirane-2-carbonyl]-L-lysine-9-fluorenylamide hydrochloride] |  | 870 |  |
| CC(C)NC(=O)[C@H](Cc1ccccc1)NC(=O)[C@H]1O[C@@H]1C(=O)N[C@@H](CCCCN)C(=O)Nc1ccccc1 [Example 61, Nα-{L-3-trans-[(S)-1-isopropylcarbamoyl-2-phenylethylcarbamoyl]oxirane-2-carbonyl}-L-lysine anilide hydrochloride] | > 3571 | 2.8 | > 10000 |
| CCCNC(=O)[C@H](Cc1ccccc1)NC(=O)[C@H]1O[C@@H]1C(=O)N[C@@H](CCCCN)C(=O)Nc1ccccc1 [Example 59, Nα-{L-3-trans-[(S)-1-propylcarbamoyl-2-phenylethylcarbamoyl]oxirane-2-carbonyl}-L-lysine anilide hydrochloride] | > 3703 | 2.7 | > 10000 |
| CC(=O)NCCCC[C@H](NC(=O)[C@H]1O[C@@H]1C(=O)N[C@@H](Cc1ccccc1)C(N)=O)C(=O)Nc1cccc2ccccc12 [Example 31, Nα-{L-3-trans-[(S)-1-carbamoyl-2-phenylethylcarbamoyl]oxirane-2-carbonyl)-Nε-acetyl-L-lysine-1-naphthylamide] |  | 7 |  |
| NCCCC[C@H](NC(=O)[C@H]1O[C@@H]1C(=O)NCCc1ccccc1)C(=O)NC1c2ccccc2-c2ccccc21 [Example 6, Nα-[L-3-trans-(2-phenylethylcarbamoyl)oxirane-2-carbonyl]-L-lysine-9-fluorenylamide hydrochloride] |  | 960 |  |
